Data: PubChem BioAssay (NCI)
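Test compounds were applied to cells in 96-well plates for 48 hours at 5 doses. TGI: concentration producing complete growth inhibition.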

Experiments:
Test in all cases: inhibition of tumour cell growth, NCI panel, 48 h
[1] = tested on: MCF7 breast
[2] = tested on: NCI-H226 lung
[3] = tested on: CCRF-CEM leukemia
[4] = tested on: NCI/ADR-RES ovarian
[5] = tested on: HL-60(TB) leukemia
[6] = tested on: ACHN renal
[7] = tested on: SW-620 colon
[8] = tested on: HT29 colon
[9] = tested on: UO-31 renal
[10] = tested on: KM12 colon
[11] = tested on: COLO 205 colon
[12] = tested on: 786-0 renal
[13] = tested on: CAKI-1 renal
[14] = tested on: OVCAR-5 ovarian
[15] = tested on: U251 CNS
[16] = tested on: NCI-H460 lung
[17] = tested on: SR leukemia
[18] = tested on: RXF 393 renal
[19] = tested on: OVCAR-8 ovarian
[20] = tested on: SF-295 CNS
[21] = tested on: SNB-75 CNS
[22] = tested on: NCI-H522 lung
[23] = tested on: HCT-15 colon
[24] = tested on: HCT-116 colon
[25] = tested on: T-47D breast
[26] = tested on: M14 melanoma
[27] = tested on: OVCAR-4 ovarian
[28] = tested on: LOX IMVI melanoma
[29] = tested on: A549 NSCLC
[30] = tested on: UACC-62 melanoma
[31] = tested on: SF-539 CNS
[32] = tested on: SF-268 CNS
[33] = tested on: MDA-N
[34] = tested on: HS 578T breast
[35] = tested on: EKVX NSCLC
[36] = tested on: SK-MEL-5 melanoma
[37] = tested on: SK-OV-3 ovarian
[38] = tested on: HOP-92 NSCLC
[39] = tested on: DU-145 prostate
[40] = tested on: HOP-62 NSCLC
[41] = tested on: RPMI-8226 leukemia
[42] = tested on: HCC-2998 colon
[43] = tested on: MDA-MB-435
[44] = tested on: A498 renal
[45] = tested on: UACC-257 melanoma
[46] = tested on: NCI-H23 lung
[47] = tested on: IGROV1 ovarian
[48] = tested on: MOLT-4 leukemia
[49] = tested on: OVCAR-3 ovarian
[50] = tested on: TK-10 renal
[51] = tested on: SN12C renal
[52] = tested on: MDA-MB-231 breast
[53] = tested on: PC-3 prostate
[54] = tested on: SNB-19 CNS
[55] = tested on: BT-549 breast
[56] = tested on: SK-MEL-28 melanoma
[57] = tested on: MALME-3M melanoma
[58] = tested on: K-562 leukemia

c1csc(-c2ccsc2-c2cccs2)c1
TGI [1]: > 100 µM
TGI [2]: > 100 µM
TGI [3]: > 100 µM
TGI [4]: > 100 µM
TGI [5]: 86.7 µM
TGI [6]: > 100 µM
TGI [7]: > 100 µM
TGI [8]: > 100 µM
TGI [9]: > 100 µM
TGI [10]: > 100 µM
TGI [11]: > 100 µM
TGI [12]: > 100 µM
TGI [13]: > 100 µM
TGI [14]: > 100 µM
TGI [15]: > 100 µM
TGI [16]: > 100 µM
TGI [17]: 21.3 µM
TGI [18]: > 100 µM
TGI [19]: > 100 µM
TGI [20]: > 100 µM
TGI [21]: > 100 µM
TGI [22]: > 100 µM
TGI [23]: > 100 µM
TGI [24]: > 100 µM
TGI [25]: > 100 µM
TGI [26]: > 100 µM
TGI [27]: > 100 µM
TGI [28]: > 100 µM
TGI [29]: 61 µM
TGI [30]: > 100 µM
TGI [31]: > 100 µM
TGI [32]: > 100 µM
TGI [33]: > 100 µM
TGI [34]: > 100 µM
TGI [35]: > 100 µM
TGI [36]: > 100 µM
TGI [37]: > 100 µM
TGI [38]: > 100 µM
TGI [39]: > 100 µM
TGI [40]: > 100 µM
TGI [41]: 66.8 µM
TGI [42]: > 100 µM
TGI [43]: 53.7 µM
TGI [44]: > 100 µM
TGI [45]: > 100 µM
TGI [46]: 49.7 µM
TGI [47]: > 100 µM
TGI [48]: 71.1 µM
TGI [49]: > 100 µM
TGI [50]: > 100 µM
TGI [51]: > 100 µM

CC(O)(P(=O)(O)O)P(=O)(O)OCC(O)CN1CCOCC1 (stereo not drawn)
TGI [1]: > 100 µM
TGI [2]: > 100 µM
TGI [3]: > 100 µM
TGI [4]: > 100 µM
TGI [5]: > 100 µM
TGI [6]: > 100 µM
TGI [7]: > 100 µM
TGI [8]: > 100 µM
TGI [52]: > 100 µM
TGI [9]: > 100 µM
TGI [10]: > 100 µM
TGI [53]: > 100 µM
TGI [11]: > 100 µM
TGI [12]: > 100 µM
TGI [13]: > 100 µM
TGI [14]: > 100 µM
TGI [15]: > 100 µM
TGI [16]: > 100 µM
TGI [17]: > 100 µM
TGI [54]: > 100 µM
TGI [18]: > 100 µM
TGI [19]: > 100 µM
TGI [20]: > 100 µM
TGI [55]: > 100 µM
TGI [22]: > 100 µM
TGI [23]: > 100 µM
TGI [24]: > 100 µM
TGI [26]: > 100 µM
TGI [28]: > 100 µM
TGI [29]: > 100 µM
TGI [56]: > 100 µM
TGI [30]: > 100 µM
TGI [31]: > 100 µM
TGI [32]: > 100 µM
TGI [33]: > 100 µM
TGI [34]: > 100 µM
TGI [35]: > 100 µM
TGI [37]: > 100 µM
TGI [38]: > 100 µM
TGI [39]: > 100 µM
TGI [40]: > 100 µM
TGI [41]: > 100 µM
TGI [42]: > 100 µM
TGI [57]: > 100 µM
TGI [43]: > 100 µM
TGI [44]: > 100 µM
TGI [45]: > 100 µM
TGI [58]: > 100 µM
TGI [46]: > 100 µM
TGI [47]: > 100 µM
TGI [48]: > 100 µM
TGI [50]: > 100 µM
